Data published in US11999716B2, “WDR5 inhibitors and modulators” (priority 2018, dated 2024).

Test system: MV4:11 human cancer cell lines
Experiment: Cellular viability / anti-proliferative activity, CellTiter-Glo, 5 day protocol
Type: cell-based
Conditions: Homo sapiens, MV4-11, 120 h, MV4:11 cells; 5 day incubation; CellTiter-Glo; mean of minimum two replicates; read-out: GI50 on cellular proliferation of MV4:11 human cancer cell lines
In short: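 Compounds were tested over 22 two-fold dilutions starting at 30 μM in 0.3% DMSO, with 200 cells per well (7200 cells/mL). Viability was measured by CellTiter-Glo luminescence at day 5.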

| SMILES | GI50 |
| --- | --- |
| CCn1cc(-c2cc(Cn3ccoc3=N)cc3c2CCN(Cc2cc(OC)ccn2)C3=O)c(C)n1 [Example 90, 5-(1-Ethyl-3-methyl-1H-pyrazol-4-yl)-7-((2-iminooxazol-3(2H)-yl)methyl)-2-((4-methoxypyridin-2-yl)methyl)-3,4-dihydroisoquinolin-1(2H)-one] | 209 nM |
| COc1cc(CN2CCc3c(cc(CN4CCCC4=N)cc3-c3cn(C)nc3C(F)(F)F)C2=O)cc(OC)c1 [Example 109, 2-(3,5-Dimethoxybenzyl)-7-((2-iminopyrrolidin-1-yl)methyl)-5-(1-methyl-3-(trifluoromethyl)-1H-pyrazol-4-yl)-3,4-dihydroisoquinolin-1(2H)-one] | 104 nM |
| COc1ccnc(CN2CCc3c(cc(Cn4ccn(C)c4=N)cc3-c3cccnc3C)C2=O)c1 [Example 60, 7-((2-Imino-3-methyl-2,3-dihydro-1H-imidazol-1-yl)methyl)-2-((4-methoxypyridin-2-yl)methyl)-5-(2-methylpyridin-3-yl)-3,4-dihydroisoquinolin-1(2H)-one] | > 938 nM |
| Cc1nccn1Cc1cc2c(c(-c3cn(C)nc3C(F)(F)F)c1)CCN(Cc1ccc3ccccc3n1)C2=O [Example 176, 7-((2-Methyl-1H-imidazol-1-yl)methyl)-5-(1-methyl-3-(trifluoromethyl)-1H-pyrazol-4-yl)-2-(quinolin-2-ylmethyl)-3,4-dihydroisoquinolin-1(2H)-one] | 293 nM |
| CCc1ccnc(CN2CCc3c(cc(Cn4cnn(C)c4=N)cc3-c3cn(CC)nc3C(F)(F)F)C2=O)c1 [Example 129, 5-(1-Ethyl-3-(trifluoromethyl)-1H-pyrazol-4-yl)-2-((4-ethylpyridin-2-yl)methyl)-7-((5-imino-1-methyl-1,5-dihydro-4H-1,2,4-triazol-4-yl)methyl)-3,4-dihydroisoquinolin-1(2H)-one] | < 50 nM |
| Cc1cc([C@H](C)N2CCc3c(cc(Cn4ccnc4)cc3-c3cn(C)nc3C(F)(F)F)C2=O)ncc1F [Example 185, (S)-7-((1H-Imidazol-1-yl)methyl)-2-(1-(5-fluoro-4-methylpyridin-2-yl)ethyl)-5-(1-methyl-3-(trifluoromethyl)-1H-pyrazol-4-yl)-3,4-dihydroisoquinolin-1(2H)-one] | < 50 nM |
| COc1cc(CN2CCc3c(cc(Cn4cnnc4C)cc3-c3ccc(F)cc3C)C2=O)cc(OC)c1 [Example 145, 2-(3,5-Dimethoxybenzyl)-5-(4-fluoro-2-methylphenyl)-7-((3-methyl-4H-1,2,4-triazol-4-yl)methyl)-3,4-dihydroisoquinolin-1(2H)-one] | > 938 nM |

Continued, values first:

| GI50 | SMILES |
| --- | --- |
| < 50 nM | Cc1cncc([C@H](C)N2CCc3c(cc(Cn4ccnc4C)cc3-c3cn(C)nc3C(F)(F)F)C2=O)c1 [Example 200, (S)-7-((2-Methyl-1H-imidazol-1-yl)methyl)-5-(1-methyl-3-(trifluoromethyl)-1H-pyrazol-4-yl)-2-(1-(5-methylpyridin-3-yl)ethyl)-3,4-dihydroisoquinolin-1(2H)-one] |
| 7450 nM | COc1cc(CN2CCc3c(cc(Cn4cnc5ccccc54)cc3-c3ccc(F)cc3C)C2=O)cc(OC)c1 [Example 227] |
| 349 nM | Cc1cc(CN2CCc3c(cc(Cn4ccnc4C)cc3-c3cn(C)nc3C(F)(F)F)C2=O)on1 [Example 190, 7-((2-Methyl-1H-imidazol-1-yl)methyl)-5-(1-methyl-3-(trifluoromethyl)-1H-pyrazol-4-yl)-2-((3-methylisoxazol-5-yl)methyl)-3,4-dihydroisoquinolin-1(2H)-one] |
| < 50 nM | CCn1cc(-c2cc(Cc3ncc[nH]3)cc3c2CCN([C@@H](C)c2cc(OC)ccn2)C3=O)c(C(F)(F)F)n1 [Example 230, (S)-7-((1H-Imidazol-2-yl)methyl)-5-(1-ethyl-3-(trifluoromethyl)-1H-pyrazol-4-yl)-2-(1-(4-methoxypyridin-2-yl)ethyl)-3,4-dihydroisoquinolin-1(2H)-one] |
